Key:
[1] = refractive index (Na D-line) (dimensionless); conditions: 298.15 K; 101.33 kPa; Liquid; Standard Abbe refractometry
[2] = Liquid, Vibrating tube method

CCCCCCCCCC [decane]
Conditions	refractive index
[1]	1.4091

[2]
Conditions	mass density [kg/m3]
313.15 K, 100 kPa	714.75
313.15 K, 1010 kPa	715.53
313.15 K, 2000 kPa	716.4
313.15 K, 3000 kPa	717.27
313.15 K, 4000 kPa	718.14
313.15 K, 5000 kPa	718.99
313.15 K, 6010 kPa	719.78
313.15 K, 7010 kPa	720.66
313.15 K, 7990 kPa	721.48
313.15 K, 9000 kPa	722.28
313.15 K, 10000 kPa	723.08
313.15 K, 11000 kPa	723.91
313.15 K, 12000 kPa	724.66
313.15 K, 13000 kPa	725.42
313.15 K, 14010 kPa	726.18
313.15 K, 15010 kPa	726.93
313.15 K, 16000 kPa	727.61
313.15 K, 17010 kPa	728.38
313.15 K, 18010 kPa	729.1
313.15 K, 19000 kPa	729.81
313.15 K, 20000 kPa	730.51
323.15 K, 100 kPa	706.95
323.15 K, 1000 kPa	707.77
323.15 K, 1990 kPa	708.72
323.15 K, 3000 kPa	709.63
323.15 K, 4000 kPa	710.55
323.15 K, 5010 kPa	711.46
323.15 K, 5990 kPa	712.35
323.15 K, 7000 kPa	713.23
323.15 K, 8010 kPa	714.1
323.15 K, 8990 kPa	714.96
323.15 K, 10010 kPa	715.8
323.15 K, 11000 kPa	716.66
323.15 K, 12010 kPa	717.49
323.15 K, 13010 kPa	718.29
323.15 K, 14000 kPa	719.09
323.15 K, 15010 kPa	719.88
323.15 K, 16010 kPa	720.66
323.15 K, 17010 kPa	721.43
323.15 K, 17990 kPa	722.2
323.15 K, 18990 kPa	722.94
323.15 K, 20010 kPa	723.68
333.15 K, 100 kPa	699.17
333.15 K, 1000 kPa	700.04
333.15 K, 2010 kPa	701.02
333.15 K, 3000 kPa	702.01
333.15 K, 4010 kPa	702.98
333.15 K, 4990 kPa	703.93
333.15 K, 5990 kPa	704.88
333.15 K, 7000 kPa	705.81
333.15 K, 8000 kPa	706.73
333.15 K, 9010 kPa	707.63
333.15 K, 9990 kPa	708.53
333.15 K, 11000 kPa	709.45
333.15 K, 12000 kPa	710.31
333.15 K, 13010 kPa	711.16
333.15 K, 14000 kPa	712.01
333.15 K, 15000 kPa	712.85
333.15 K, 16010 kPa	713.67
333.15 K, 16990 kPa	714.48
333.15 K, 18000 kPa	715.29
333.15 K, 18990 kPa	716.08
333.15 K, 20000 kPa	716.87
343.15 K, 100 kPa	691.44
343.15 K, 1010 kPa	692.33
343.15 K, 2010 kPa	693.38
343.15 K, 2990 kPa	694.42
343.15 K, 4010 kPa	695.45
343.15 K, 4990 kPa	696.46
343.15 K, 6000 kPa	697.46
343.15 K, 7000 kPa	698.44
343.15 K, 8010 kPa	699.41
343.15 K, 8990 kPa	700.37
343.15 K, 10010 kPa	701.31
343.15 K, 11010 kPa	702.25
343.15 K, 12010 kPa	703.17
343.15 K, 13000 kPa	704.08
343.15 K, 14010 kPa	704.97
343.15 K, 15000 kPa	705.86
343.15 K, 16000 kPa	706.73
343.15 K, 17010 kPa	707.59
343.15 K, 18010 kPa	708.44
343.15 K, 18990 kPa	709.28
343.15 K, 19990 kPa	710.1
353.15 K, 100 kPa	683.75
353.15 K, 1010 kPa	684.69
353.15 K, 2000 kPa	685.79
353.15 K, 3010 kPa	686.88
353.15 K, 4010 kPa	687.96
353.15 K, 5010 kPa	689.03
353.15 K, 5990 kPa	690.08
353.15 K, 7000 kPa	691.11
353.15 K, 8000 kPa	692.13
353.15 K, 9000 kPa	693.13
353.15 K, 10000 kPa	694.12
353.15 K, 11010 kPa	695.12
353.15 K, 12000 kPa	696.08
353.15 K, 13000 kPa	697.04
353.15 K, 13990 kPa	697.98
353.15 K, 15000 kPa	698.91
353.15 K, 16000 kPa	699.82
353.15 K, 16990 kPa	700.72
353.15 K, 18010 kPa	701.62
353.15 K, 19000 kPa	702.5
353.15 K, 20000 kPa	703.37
363.15 K, 100 kPa	676.12
363.15 K, 990 kPa	677.1
363.15 K, 2010 kPa	678.26
363.15 K, 3000 kPa	679.41
363.15 K, 3990 kPa	680.54
363.15 K, 5010 kPa	681.66
363.15 K, 5990 kPa	682.76
363.15 K, 7000 kPa	683.84
363.15 K, 8010 kPa	684.91
363.15 K, 9010 kPa	685.97
363.15 K, 10010 kPa	687
363.15 K, 11000 kPa	688.04
363.15 K, 12010 kPa	689.05
363.15 K, 13010 kPa	690.06
363.15 K, 14000 kPa	691.04
363.15 K, 15010 kPa	692.02
363.15 K, 15990 kPa	692.98
363.15 K, 17000 kPa	693.93
363.15 K, 17990 kPa	694.86
363.15 K, 19000 kPa	695.79
363.15 K, 20000 kPa	696.7
